Source: patent US11618747B2, “LXR modulators with bicyclic core moiety” (OrsoBio, Inc., priority 2018, dated 2023)

Legend:
full length (FL) LXRβ = target: T1, full length (FL) LXRβ (Homo sapiens, UniProt P55055, DUP175-175); test: LXR Gal4 reporter transient transfection assay (FL-M2H Gal4β); type: cell-based; conditions: HEK293 cells, full length LXRβ; read-out: FL-M2H Gal4β (EC50 range)
T1 construct: the full length (FL) proteins of LXRα (amino acids 1-447); NP005684; NP009052; expressed in transfected cells; host or cells: HEK293
T1 sequence (P55055 with tags, fused parts or gaps DUP175-175): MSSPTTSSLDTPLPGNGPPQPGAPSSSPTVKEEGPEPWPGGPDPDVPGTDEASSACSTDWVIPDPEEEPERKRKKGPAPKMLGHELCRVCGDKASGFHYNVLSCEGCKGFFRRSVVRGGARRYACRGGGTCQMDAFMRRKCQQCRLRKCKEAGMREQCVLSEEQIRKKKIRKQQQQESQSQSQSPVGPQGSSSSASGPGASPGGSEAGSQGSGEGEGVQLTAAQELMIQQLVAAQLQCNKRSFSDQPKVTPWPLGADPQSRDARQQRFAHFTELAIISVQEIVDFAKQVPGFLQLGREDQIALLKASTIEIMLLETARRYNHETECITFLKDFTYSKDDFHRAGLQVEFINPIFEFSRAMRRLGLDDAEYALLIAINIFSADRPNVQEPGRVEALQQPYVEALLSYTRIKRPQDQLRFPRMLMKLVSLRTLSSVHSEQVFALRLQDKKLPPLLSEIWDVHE
Method in brief: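 Luminescence readout: Firefly luciferase driven by GAL4 response elements reports LXR–cofactor interaction, normalised against cotransfected Renilla luciferase. The system used HEK293 cells expressing LXR full length or ligand-binding domain fused to the NFkB activation domain, with SRC1 or NCoR domains on GAL4 DBD; compound exposure was 16 h.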

[1] = target: T2, LXRβ ligand-binding domain (Homo sapiens, UniProt P55055, DUP175-175); test: TR-FRETβ activity assay (NCoA3 coactivator peptide recruitment); type: biochemical; conditions: TR-FRET, 1 μM 24(S)-25-epoxycholesterol prestimulation; read-out: FRETβ (EC50 range)
T2 construct: amino acids 156-461; NP009052; made in house; host or cells: E. coli
T2 sequence (P55055 with tags, fused parts or gaps DUP175-175 limits assumed): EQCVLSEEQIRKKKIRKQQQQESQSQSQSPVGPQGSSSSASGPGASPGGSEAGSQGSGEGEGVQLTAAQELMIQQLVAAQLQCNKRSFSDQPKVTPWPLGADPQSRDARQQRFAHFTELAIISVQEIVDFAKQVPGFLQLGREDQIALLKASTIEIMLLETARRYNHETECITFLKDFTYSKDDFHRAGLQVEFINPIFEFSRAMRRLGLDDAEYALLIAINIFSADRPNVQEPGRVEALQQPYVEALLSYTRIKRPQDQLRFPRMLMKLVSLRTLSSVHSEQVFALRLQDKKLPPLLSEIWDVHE
Method in brief: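 Inverse agonism assessed by loss of coactivator recruitment, read as TR-FRET 665/615 nm after 1 h equilibration at 4 °C, in triplicate. Ten-point titration from 50 μM to 0.002 μM against LXRβ LBD (76 nM, GST fusion) prestimulated with 1 μM 24(S)-25-epoxycholesterol, with 400 nM NCoA3 peptide, pH 6.8. Sulfonyl acetic acids kept as 20 mM DMSO stocks with 100 mM TFA.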

full length (FL) LXRα = target: T3, full length (FL) LXRα (Homo sapiens, UniProt Q13133); test: LXR Gal4 reporter transient transfection assay (FL-M2H Gal4α); type: cell-based; conditions: HEK293 cells, full length LXRα; read-out: FL-M2H Gal4α (EC50 range)
T3 construct: the full length (FL) proteins of LXRα (amino acids 1-447); NP005684; expressed in transfected cells; host or cells: HEK293
T3 sequence (Q13133 1-447): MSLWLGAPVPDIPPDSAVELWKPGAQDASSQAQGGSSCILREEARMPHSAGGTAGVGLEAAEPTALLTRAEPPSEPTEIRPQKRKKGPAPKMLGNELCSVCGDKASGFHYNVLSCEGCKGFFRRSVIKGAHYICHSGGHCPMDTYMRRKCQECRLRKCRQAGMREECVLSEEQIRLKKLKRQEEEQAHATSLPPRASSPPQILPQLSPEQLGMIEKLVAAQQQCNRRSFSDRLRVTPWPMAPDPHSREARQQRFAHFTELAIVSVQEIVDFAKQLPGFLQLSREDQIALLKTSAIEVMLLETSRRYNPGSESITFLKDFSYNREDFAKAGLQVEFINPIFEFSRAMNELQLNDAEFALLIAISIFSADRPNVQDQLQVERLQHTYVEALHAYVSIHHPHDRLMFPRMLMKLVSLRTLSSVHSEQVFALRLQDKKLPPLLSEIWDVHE
Description: The tested compounds were usually dissolved, tested and stored as 20 mM stock solutions in DMSO. Since sulfonyl acetic acid derivatives tend to decarboxylate under these conditions, these stock solutions were prepared, tested and stored as 20 mM DMSO stock solutions containing 100 mM trifluoroacetic Acid (5 equivalents). Sulfonyl acetic acid derivatives are shelf stable as solid at rt for long time as reported by Griesbrecht et al. (Synlett 2010:374) or Faucher et al. (J. Med. Chem. 2004; 47:18).
LXR Gal4 Reporter Transient Transfection Assays
LXRα and LXRβ activity status was determined via detection of interaction with coactivator and corepressor proteins in mammalian two-hybrid experiments (M2H). For this, via transient transfection the full length (FL) proteins of LXRα (amino acids 1-447; NP005684; SEQ ID NO:1) or LXRβ-(amino acids 1-461; NP009052; SEQ ID NO:2) or the ligand-binding domains (LBD) of LXRα (amino acids 155-447 SEQ ID NO:3) or LXRβ (amino acids 156-461; SEQ ID NO:4) were expressed from pCMV-AD (Stratagene) as fusions to the transcriptional activation domain of NFkB. As cofactors, domains of either the steroid receptor coactivator 1 (SRC1; amino acids 552-887; SEQ ID NO:5) or of the corepressor NCoR (amino acids 1906-2312; NP006302; SEQ ID NO:6) were expressed as fusions to the DNA binding domain of the yeast transcription factor GAL4 (from pCMV-BD; Stratagene). Interaction was monitored via activation of a coexpressed Firefly Luciferase Reporter gene under control of a promoter containing repetitive GAL4 response elements (vector pFRLuc; Stratagene). Transfection efficiency was controlled via cotransfection of constitutively active pRL-CMV Renila reniformis luciferase reporter (Promega). HEK293 cells were grown in minimum essential medium (MEM) with 2 mM L-glutamine and Earle's balanced salt solution supplemented with 8.3% fetal bovine serum, 0.1 mM non-essential amino acids, 1 mM sodium pyruvate, at 37° C. in 5% CO2. 3.5×10^4 cells/well were plated in 96-well cell culture plates in growth medium supplemented with 8.3% fetal bovine serum for 16-20 h to ˜90% confluency. For transfection, medium was taken off and LXR and cofactor expressing plasmids as well as the reporter plasmids are added in 30 μL OPTIMEM/well including polyethylene-imine (PEI) as vehicle. Typical amounts of plasmids transfected/well: pCMV-AD-LXR (5 ng), pCMV-BD-cofactor (5 ng), pFR-Luc (100 ng), pRL-CMV (0.5 ng). Compound stocks were prepared in DMSO, prediluted in MEM to a total volume of 120 μL, and added 4 h after addition of the transfection mixture (final vehicle concentration not exceeding 0.2%). Cells were incubated for additional 16 h, lysed for 10 min in 1× Passive Lysis Buffer (Promega) and Firefly and Renilla luciferase activities were measured sequentially in the same cell extract using buffers containing D-luciferine and coelenterazine, respectively. Measurements of luminescence were done in a BMG-luminometer.

Row | SMILES | EC50 (full length (FL) LXRβ) | EC50 [1] | EC50 (full length (FL) LXRα)
1 | Cc1ccc(S(=O)(=O)n2c(-c3cccc(C4CC(C(=O)O)C4)c3)c(-c3ccsc3C#N)c3cc(F)ccc32)cc1 (stereo not drawn) [3/39] | < 100 nM | 100 to 1000 nM | 100 to 1000 nM
2 | COc1cccc(-c2c(-c3cccc(-c4ccc(C(=O)O)cc4Cl)c3)n(S(=O)(=O)c3ccc(C)cc3)c3ccc(F)cc23)c1C#N [11/3] | < 100 nM | < 100 nM | < 100 nM
3 | Cc1ccc(S(=O)(=O)n2c(-c3cccc(N4CC(C(=O)O)C4)c3)c(-c3sccc3C#N)c3cc(F)ccc32)cc1 [3/25] | < 100 nM | 1000 to 10000 nM | 100 to 1000 nM
4 | Cc1ccc(S(=O)(=O)n2c(-c3cccc(N4CC(C)(C(=O)O)C4)c3)c(-c3ccsc3C#N)c3cc(F)ccc32)cc1 [3/37] | < 100 nM | 100 to 1000 nM | < 100 nM
5 | CC(O)(C(=O)O)c1cc(F)c(-c2cccc(-c3c(-c4c(C#N)cccc4C#N)c4cc(F)ccc4n3S(=O)(=O)c3ccc(C(F)F)cc3)c2)c(F)c1 (stereo not drawn) [3/72] | < 100 nM | < 100 nM | < 100 nM
6 | N#Cc1cccc(C#N)c1-c1c(-c2cccc(C3CC3C(=O)O)c2)n(S(=O)(=O)c2ccc(C(F)F)cc2)c2ccc(F)cc12 (stereo not drawn) [3/68] | < 100 nM | 100 to 1000 nM | < 100 nM
7 | Cc1cc(S(=O)(=O)n2c(-c3cccc(-c4ccc(C(=O)O)cc4Cl)c3)c(-c3ccsc3C#N)c3cc(F)ccc32)ccc1F [3/23] | < 100 nM | 100 to 1000 nM | < 100 nM
8 | N#Cc1sccc1-c1c(-c2cccc(-c3ccc(C(=O)O)cc3Cl)c2)n(S(=O)(=O)c2ccc(Cl)cc2)c2ccc(F)cc12 [3/57] | < 100 nM | 100 to 1000 nM | < 100 nM
9 | Cc1ccc(S(=O)(=O)n2c(-c3cccc(-c4ccc(C(=O)O)c(Cl)c4)c3)c(-c3ccsc3C#N)c3cc(F)ccc32)cc1 [3/49] | < 100 nM | 100 to 1000 nM | < 100 nM
10 | O=C(O)c1ccc(-c2cccc(-c3c(-c4ccsc4C(F)(F)F)c4cc(F)ccc4n3S(=O)(=O)c3ccc(C(F)F)cc3)c2)c(Cl)c1 [11/22] | < 100 nM | < 100 nM | < 100 nM
11 | Cc1ccc(S(=O)(=O)n2c(-c3cccc(-c4ccc(C(=O)O)cc4Cl)c3)c(-c3c(C)cccc3C#N)c3cc(F)ccc32)cc1 [11/6] | < 100 nM | < 100 nM | < 100 nM
12 | N#Cc1cccc(C#N)c1-c1c(-c2cccc(-c3ccc(C(=O)O)cc3Cl)c2)n(S(=O)(=O)c2ccc(C(F)F)cc2)c2cnc(O)cc12 [3/70] | 100 to 1000 nM | 100 to 1000 nM | 100 to 1000 nM
13 | Cc1n[nH]c(C)c1-c1c(-c2cccc(-c3ccc(C(=O)O)cc3Cl)c2)n(S(=O)(=O)c2ccc(C(F)F)cc2)c2ccc(F)cc12 [11/24] | 100 to 1000 nM | 100 to 1000 nM | 100 to 1000 nM
14 | CC(C)(C)OC(=O)CNC(=O)c1ccc(-c2cccc(-c3c(-c4c(C#N)cccc4C#N)c4cc(F)ccc4n3S(=O)(=O)c3ccc(C(F)F)cc3)c2)c(Cl)c1 [6/3] | < 100 nM | < 100 nM | < 100 nM
15 | Cc1ccc(S(=O)(=O)n2c(-c3cccc(-c4ccc(C(=O)O)nc4C)c3)c(-c3ccsc3C#N)c3cc(F)ccc32)cc1 [36/1] | < 100 nM | 100 to 1000 nM | < 100 nM
16 | N#Cc1ccc(S(=O)(=O)n2c(-c3cccc(-c4ccc(C(=O)O)cc4Cl)c3)c(-c3ccsc3C#N)c3cc(F)ccc32)cc1 [11/20] | < 100 nM | 100 to 1000 nM | < 100 nM
17 | N#Cc1sccc1-c1c(-c2cccc(C3CC3C(=O)NO)c2)n(S(=O)(=O)c2ccc(Cl)cc2)c2ccccc12 (stereo not drawn) [6/1] | < 100 nM | 100 to 1000 nM | < 100 nM
18 | Cc1ccc(S(=O)(=O)n2c(-c3cccc(-c4ccc(C(=O)O)nc4)c3)c(-c3ccsc3C#N)c3cc(F)ccc32)cc1 [3/47] | < 100 nM | 100 to 1000 nM | < 100 nM
19 | N#Cc1sccc1-c1c(-c2cccc(-c3ccc(C(=O)O)cc3)c2)n(S(=O)(=O)c2ccc3c(c2)CCC3)c2ccc(F)cc12 [23/3] | < 100 nM | 100 to 1000 nM | < 100 nM
20 | O=C(O)c1ccc(-c2cccc(-c3c(-c4c(C(F)F)cccc4C(F)F)c4cc(F)ccc4n3S(=O)(=O)c3ccc(C(F)F)cc3)c2)c(Cl)c1 [11/15] | < 100 nM | < 100 nM | < 100 nM
21 | N#Cc1cccc(C#N)c1-c1c(-c2cccc(Br)c2)n(S(=O)(=O)c2ccc(C(F)F)cc2)c2ccc(F)cc12 [1/139] | < 100 nM | 100 to 1000 nM | < 100 nM
22 | N#Cc1cccc(C#N)c1-c1c(-c2cccc(-c3ccc(C(=O)O)cc3Cl)c2)n(S(=O)(=O)c2ccc(Cl)cc2)c2ccc(F)cc12 [11/55] | < 100 nM | < 100 nM | < 100 nM
23 | Cc1ccc(S(=O)(=O)n2c(-c3cccc(-c4ccc(C(=O)O)c(C)c4Cl)c3)c(-c3ccsc3C#N)c3cc(F)ccc32)cc1 [12/1] | < 100 nM | 100 to 1000 nM | < 100 nM
24 | N#Cc1ccccc1-c1c(-c2cccc(-c3ccc(C(=O)O)cc3F)c2)n(S(=O)(=O)c2ccc(C(F)F)cc2)c2ccc(F)cc12 [11/31] | < 100 nM | < 100 nM | < 100 nM
